Experimental data taken from EP3763715A1, “HARRINGTONINES SALTS, IN PARTICULAR RETINOATES, THEIR PROCESS OF PREPARATION AND THEIR USES IN THE TREATMENT OF LEUKEMIAS, CANCERS, AUTOIMMUNE, SKIN, ALZHEIMER'S AND INFLAMMATORY BOWEL DISEASES AND VIRAL INFECTIONS, COMBINED WITH MYELOPOIESIS STIMULATING AGENTS” (Robin, Jean-Pierre, priority 2019, dated 2021).

Legend:
[1] = system: Swiss nu/nu mice; experiment: Toxicity seen in mice bearing MDA-MB-468 xenografts (in vivo efficacy study); details: 1 mg/kg, subcutaneously, bi-daily, mice with MDA-MB-468 xenografts; all mice died after only a few days; preliminary experiment, data not shown
Description: The experiments were conducted according to the Guide for the Care and Use of Laboratory Animals published by the US National Institutes of Health (NIH Publication n°85-23, revised 1996) and approved by the Ethic Committee of Clermont-Ferrand, France. All mouse studies were conducted in the animal facility of the INSERM U1240. Six weeks old Swiss nu/nu mice were purchased from Charles River Laboratories France and housed in standard conditions (n=5 per cage on ventilated racks, at 21-24 °C, 60% humidity, 12 h light/12 h dark cycle) with ad libitum access to irradiated food and water. […]
For assessment of HHT toxicity, groups of 6 mice were injected with sterile saline or 1, 2, 4 or 8 mg/kg of the drug, subcutaneously, bi-daily, over 7 days. […] The number of live animals was determined at days 4, 8 and 10, after treatment initiation.
For evaluation of HHT efficacy in vivo, when xenografts reached a volume of 200±20 mm^3, mice were randomized into the control or the treated group. […] Tumor size was non-invasively assessed using a digital caliper on days 3, 6, 8 and 10 after treatment initiation. Tumor volume was calculated using the following formula: V=(length×width^2)/2.

[2] = system: multidrug-resistant cell lines; details: greater than that of HHT; cited from earlier work

COC(=O)C[C@](O)(CCCC(C)(C)O)C(=O)O[C@@H]1C(OC)=C[C@]23CCCN2CCc2cc4c(cc2[C@H]13)OCO4 [HHT, Homoharringtonine]
toxicity for the animals [1]: too toxic

C/C=C/C=C/COC(=O)C[C@](O)(CCCC(C)(C)O)C(=O)O[C@@H]1C(OC)=C[C@]23CCCN2CCc2cc4c(cc2[C@H]13)OCO4 [OP5215]
antileukemic activity [2]: 5 times
